How the values were obtained:
[1] = test system: C. elegans; assay: Single worm attraction assay (SWAA) of ascarosides; format: in vivo; conditions: males; in words
Procedure: The spot retention assay was adapted to allow for better characterization of individual worm behavior and robust interrogation of attraction to small molecules. The attractiveness of 1 μM ascr #8 (FIG. 11A) were compared across multiple strains of C. elegans (the wild-type N2 strain, the high incidence of male him-5 and him-8 strains, and the chemosensory cilia defective osm-3), using the novel behavioral assay, the single worm attraction assay (SWAA) (FIG. 11A). In this assay, individual animals were placed directly into the spot of the ascaroside cue (A) while simultaneously removing any potential of male-male contact. […] Likewise, a vehicle control (V) is also included, to account of any changes in dwell time that are driven by the components of the vehicle. The outer forty wells of a 48-well suspension culture plate (Olympus Plastics, Cat #: 25-103) were seeded with 200 μL of standard NGM agar. To prepare the plates for the assay, they were acclimated to room temperature, at which point each well was seeded with 65 μL of OP50 E. coli. The assay plates were then transferred to a 37° C. incubator with the lid tilted for 4 h to allow the bacterial culture to dry on the agar. Once the bacterial culture dried, the lid was replaced the plate was stored at 20° C. until used in the assay. Fifty to sixty L4 worms were segregated by sex and stored at 20° C. for 5 h to overnight to be assayed as young adults. 0.8 μL of either vehicle control or ascaroside #8 was placed in the center of the well corresponding to that condition within the quadrant being tested, following a random block design (FIG. 11A). A single worm was placed in each of the 10 wells to be assayed, and the plate was transferred to a light source and camera and recorded for 15 m. […] Raw dwell time values were calculated by subtracting the time a worm exited the cue (center of the well in spatial controls), from the time it entered, as in the SRA. This was determined per visit, and the average dwell time was calculated for each animal in the quadrant. Averages of the four-quadrant means were determined per plate, and a minimum of five plates were assayed per strain/condition. The mean raw dwell time across five plates was calculated and used for statistical analyses and graphical display. […] An “attractive visit” was first determined for each plate as any visit greater than two standard deviations above the mean dwell time within the vehicle control for that plate. Any individual visit meeting this threshold was scored as a “1”, and any below was scored a “0”. The percent visits per-worm that were attractive was determined, and the average of each quadrant taken. […] The average percent of attractive visits across five plates was calculated and used for statistical analyses and graphical display.

[2] = test system: trh-1 mutant worms; assay: Size comparison (body volume) after rescue-by-feeding; format: in vivo, C. elegans; conditions: for restoration of body volume: trh-1 lof animals fed E. coli expressing peptide, in words; for Relative Body Volume: trh-1 mutant animals fed peptide, N2 set as 100%
Procedure: All animals were maintained on bacterial lawns of OP50 E. coli, at 20° C., on NGM agar plates until the start of experiments. Mutant or control animals were transferred onto lawns of DH5α E. coli expressing either scramble peptide or the rescue peptide-of-interest on NGM plates containing […] AMP and 1 mM IPTG. Animals were reared on the peptide-expressing lawns for at least 48 hours at 20° C. before assaying for rescue of mutant phenotype at the appropriate developmental stage.
The body morphology different of trh-1 mutants was compared to wild-type worms by body volume measurements. Wild-type (N2) and trh-1 animals were synchronized by embryonic starvation following alkaline hypochlorite protocols. Ten gravid hermaphrodites from OP50 E. coli plates were picked into 30 μL drops of alkaline hypochlorite solution (20% sodium hypochlorite, 500 mM KOH). Two drops were placed on either side of an unseeded NGM plate, resulting in 20 animals per plate. Plates were then incubated for 24 hours at 20° C. before L1 larval animals washed with 1 mL M9 (22 mM KH2PO4, 42.25 mM Na2HPO4, 85.5 mM NaCl, 1 mM MgSO4) per unseeded NGM plate. Allow L1 worms to settle into pellet before removing M9 supernatant. Repeat washing step 2 more times. Plate worm pellet onto NGM with […] AMP and 1 mM IPTG plates containing 75 μL peptide lawns.
After at 48 hours at 20° C., animals were recorded using a Basler acA2500-14 uM camera using WormLab software (WormLab 4.1; MBF Bioscience, 2017) for 65 seconds. Worm length, width, and area were calculated within the WormLab software (FIG. 5C-FIG. 5H). As the WormLab worm width metric is an average of cross-sections throughout the length of each worm, this was used to calculate the volume of a worm as a cylinder, with the Volume=π*(0.5*width)^2*length (FIG. 2A-FIG. 2B, FIG. 5A-FIG. 5B).
Two to four plates were recorded per day for at least three days to generate data sets. Control plates of N2 and trh-1 animals raised on the scramble peptide were grown alongside every rescue feeding. Each “worm track” was considered an n=1. Tracks were excluded if (1) worm tracks less than 10 seconds, or (2) worms were further than two standard deviations from the mean metric. Following tests for normality, comparisons were made using either Mann-Whitney tests for direct comparisons between N2 and trh-1 animals reared on OP50, or Kruskal-Wallis non-parametric ANOVAs and Dunn's multiple comparisons tests for animals raised on peptide feeding strains. Comparisons were made for metrics: length (FIG. 5C-FIG. 5D), width (FIG. 5e-FIG. 5F), area (FIG. 5G-FIG. 5H), and volume (FIG. 2A-FIG. 2B, FIG. 5A-FIG. 5B).

| Molecule | male attraction in the SWAA [1] | restoration of body volume [2] | Relative Body Volume [2] [%] |
| --- | --- | --- | --- |
| C[C@H](CCCC/C=C/C(=O)O)O[C@@H]1O[C@@H](C)[C@H](O)C[C@H]1O [ascr #3] | maintains its ability to attract males in the SWAA |  |  |
| ANELF-NH2 [TRH-1B] |  | complete restoration of wild-type body volume | ~100 |
| GRELF-NH2 [TRH-1A] |  | complete restoration of wild-type body volume | ~100 |
